Experimental findings from patent US10208081B2, “Bile acid derivatives as FXR/TGR5 agonists and methods of use thereof” (Enanta Pharmaceuticals, Inc., priority 2014, dated 2019) are described below.

The target in the test is human FXR (NR1H4) (Homo sapiens (Human), UniProt Q96RI1). The test is described as follows: Human FXR (NR1H4) Assay (Gal4 promoter driven luciferase reporter, Indigo Bioscience kit IB00601). The conditions noted are these: for Efficacy (%): efficacy normalized to CDCA set as 100%; for EC50: potency ranges. The class given is cell-based. In outline:
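CHO reporter cells expressing human FXR with Gal4-driven, FXR-responsive luciferase treated with compound doses (0.2% DMSO) for 22 hours at 37° C. Luciferase luminescence then measured as surrogate of FXR activation for potency and efficacy.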
(In general: In a reporter assay the amount or activity of a reporter protein is the signal.)

Sequence of human FXR (NR1H4) (Q96RI1 whole entry, the tested form may be a part): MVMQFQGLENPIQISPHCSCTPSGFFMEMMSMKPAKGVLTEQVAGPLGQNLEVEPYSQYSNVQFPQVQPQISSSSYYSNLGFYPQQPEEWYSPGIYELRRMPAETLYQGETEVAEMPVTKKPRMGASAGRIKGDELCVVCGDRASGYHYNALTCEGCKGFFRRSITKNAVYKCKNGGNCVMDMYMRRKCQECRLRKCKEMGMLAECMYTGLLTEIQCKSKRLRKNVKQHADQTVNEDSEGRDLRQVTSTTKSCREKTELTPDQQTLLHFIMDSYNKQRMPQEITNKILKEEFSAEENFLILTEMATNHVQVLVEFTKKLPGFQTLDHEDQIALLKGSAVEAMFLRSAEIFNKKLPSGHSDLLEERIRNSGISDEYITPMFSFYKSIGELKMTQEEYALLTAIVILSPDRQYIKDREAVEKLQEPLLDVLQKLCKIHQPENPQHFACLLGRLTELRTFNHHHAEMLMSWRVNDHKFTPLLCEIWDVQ

Turning to `CC[C@H]1[C@@H](O)[C@@H]2[C@H](CC[C@]3(C)[C@@H]([C@H](C)CCNC(=O)NS(=O)(=O)c4ccc(N(C)C)cc4)CC[C@@H]23)[C@@]2(C)CC[C@@H](O)C[C@@H]12` [Example 119], the “Efficacy (%)” value amounted to 363% and the EC50 is below 100 nM.

For `CC[C@H]1[C@@H](O)[C@@H]2[C@H](CC[C@]3(C)[C@@H]([C@H](C)CNC(=O)NS(=O)(=O)c4ccc5c(c4)OCO5)CC[C@@H]23)[C@@]2(C)CC[C@@H](O)C[C@@H]12` [Example 117], the “Efficacy (%)” value was 305% and the EC50 was below 100 nM.

With `CC[C@H]1[C@@H](O)[C@@H]2[C@H](CC[C@]3(C)[C@@H]([C@H](C)CCNC(=O)NS(=O)(=O)NC)CC[C@@H]23)[C@@]2(C)CC[C@@H](OC(=O)C(F)(F)F)C[C@@H]12` [Example 126], the “Efficacy (%)” value is 238% and the EC50 was 1000 to 10000 nM.

Regarding `CC[C@H]1[C@@H](O)[C@@H]2[C@H](CC[C@]3(C)[C@@H]([C@H](C)CCNC(=O)NS(=O)(=O)N4C(C)CCC4C)CC[C@@H]23)[C@@]2(C)CC[C@@H](O)C[C@@H]12` (stereo partly drawn) [Example 98], the “Efficacy (%)” value is on record as 344% and the EC50 is below 100 nM.

For the compound `CC[C@H]1[C@@H](O)[C@@H]2[C@H](CC[C@]3(C)[C@@H]([C@H](C)CCNC(=O)NS(=O)(=O)N(C(C)C)C(C)C)CC[C@@H]23)[C@@]2(C)CC[C@@H](O)C[C@@H]12` [Example 52], the “Efficacy (%)” value is given as 281% and the concentration giving a half-maximal response (EC50) lay within 100 to 1000 nM.

On to `CC[C@H]1[C@@H](O)[C@@H]2[C@H](CC[C@]3(C)[C@@H]([C@H](C)CCNC(=O)NS(=O)(=O)N4CCN(C(=O)C(C)(C)C)CC4)CC[C@@H]23)[C@@]2(C)CC[C@@H](O)C[C@@H]12` [Example 85], for which the “Efficacy (%)” value is recorded as 324% and the EC50 was in the range of 100 to 1000 nM.

For `CC[C@H]1[C@@H](O)[C@@H]2[C@H](CC[C@]3(C)[C@@H]([C@H](C)CCNC(=O)NS(=O)(=O)c4cccc(C(C)(C)C)c4)CC[C@@H]23)[C@@]2(C)CC[C@@H](O)C[C@@H]12` [Example 53], the “Efficacy (%)” value was determined as 263% and the EC50 is below 100 nM.

Consider `CC[C@H]1[C@@H](O)[C@@H]2[C@H](CC[C@]3(C)[C@@H]([C@H](C)CCCCNS(=O)(=O)c4ccccc4)CC[C@@H]23)[C@@]2(C)CC[C@@H](O)C[C@@H]12` [Example 137], for which the “Efficacy (%)” value was found to be 105% and the EC50 lay in the range of 1000 to 10000 nM.

For the compound `CC[C@H]1[C@@H](O)[C@@H]2[C@H](CC[C@]3(C)[C@@H]([C@H](C)CCNC(=O)NS(=O)(=O)N4[C@H](C)CCC[C@@H]4C)CC[C@@H]23)[C@@]2(C)CC[C@@H](O)C[C@@H]12` [Example 96], the “Efficacy (%)” value was determined as 387% and the EC50 is below 100 nM.

As to `CC[C@H]1[C@@H](O)[C@@H]2[C@H](CC[C@]3(C)[C@@H]([C@H](C)CCNC(=O)NS(=O)(=O)c4ccc(C(=O)OC)cc4)CC[C@@H]23)[C@@]2(C)CC[C@@H](O)C[C@@H]12` [Example 123], the “Efficacy (%)” value was 271% and the EC50 fell in the range of 100 to 1000 nM.

As to `CC[C@H]1[C@@H](O)[C@@H]2[C@H](CC[C@]3(C)[C@@H]([C@H](C)CCNC(=O)NS(=O)(=O)c4ccc(C(C)(C)C)cc4)CC[C@@H]23)[C@@]2(C)CC[C@@H](O)C[C@@H]12` [Example 3], the “Efficacy (%)” value is reported as 396% and the 50% effective concentration (EC50) is below 100 nM.

As for `CC[C@H]1[C@@H](O)[C@@H]2[C@H](CC[C@]3(C)[C@@H]([C@H](C)CCNC(=O)NS(=O)(=O)c4ccc(-c5ccccc5)s4)CC[C@@H]23)[C@@]2(C)CC[C@@H](O)C[C@@H]12` [Example 108], the “Efficacy (%)” value came out at 203% and the EC50 fell in the range of 100 to 1000 nM.

By EC50 is commonly meant the concentration giving half of the maximal effect. Higher therefore signals weaker potency.
